Columns and labels:
Assay in all cases: relative viability (nuclei count vs DMSO), 5 days (fraction); higher = more cells survive
NCI-H596 = test system: NCI-H596
In short: (§1)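 Medians of duplicate plates are given as relative viability. That measure is the nuclei count in treated wells divided by the count in vehicle wells. Counts were taken on 4× images of lung cancer cell lines in 1536-well plates, 5 days after pin-tool dosing the day after seeding with one drug alone or a fixed anchor-drug dose plus five library-drug doses (not always all listed) in √10 steps.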

BEN = test system: BEN
In short: as §1

NCI-H1944 = test system: NCI-H1944
In short: as §1

201T = test system: 201T
In short: as §1

NCI-H1792 = test system: NCI-H1792
In short: as §1

NCI-H1650 = test system: NCI-H1650
In short: as §1

NCI-H520 = test system: NCI-H520
In short: as §1

NCI-H460 = test system: NCI-H460
In short: as §1

NCI-H2087 = test system: NCI-H2087
In short: as §1

NCI-H2023 = test system: NCI-H2023
In short: as §1

NCI-H727 = test system: NCI-H727
In short: as §1

H3255 = test system: H3255
In short: as §1

LC-2-ad = test system: LC-2-ad
In short: as §1

NCI-H441 = test system: NCI-H441
In short: as §1

NCI-H1651 = test system: NCI-H1651
In short: as §1

LCLC-97TM1 = test system: LCLC-97TM1
In short: as §1

CAL-12T = test system: CAL-12T
In short: as §1

PC-3 [JPC-3] = test system: PC-3 [JPC-3]
In short: as §1

NCI-H1915 = test system: NCI-H1915
In short: as §1

A-427 = test system: A-427
In short: as §1

NCI-H650 = test system: NCI-H650
In short: as §1

NCI-H661 = test system: NCI-H661
In short: as §1

O=C(O)c1ccc(-c2c[nH]c3ncc(-c4ccccc4)cc23)cc1C1CCCC1 + CC1(C)CCC(c2ccc(Cl)cc2)=C(CN2CCN(c3ccc(C(=O)NS(=O)(=O)c4ccc(N[C@H](CCN5CCOCC5)CSc5ccccc5)c(S(=O)(=O)C(F)(F)F)c4)cc3)CC2)C1 [Navitoclax] (partner 0.5 µM)
relative viability (NCI-H596; first compound 0.04 µM): 0.82
relative viability (NCI-H596; first compound 0.1265 µM): 1.12
relative viability (NCI-H596; first compound 0.4 µM): 0.869
relative viability (NCI-H596; first compound 1.265 µM): 0.884
relative viability (BEN; first compound 0.04 µM): 0.06
relative viability (BEN; first compound 0.1265 µM): 0.057
relative viability (BEN; first compound 0.4 µM): 0.0946
relative viability (BEN; first compound 1.265 µM): 0.0505
relative viability (NCI-H1944; first compound 0.04 µM): 1.01
relative viability (NCI-H1944; first compound 0.1265 µM): 1.03
relative viability (NCI-H1944; first compound 0.4 µM): 1.07
relative viability (NCI-H1944; first compound 1.265 µM): 0.932
relative viability (201T; first compound 0.04 µM): 1.23
relative viability (201T; first compound 0.1265 µM): 1.26
relative viability (201T; first compound 0.4 µM): 1.22
relative viability (201T; first compound 1.265 µM): 1.13
relative viability (NCI-H1792; first compound 0.04 µM): 0.516
relative viability (NCI-H1792; first compound 0.1265 µM): 0.728
relative viability (NCI-H1792; first compound 0.4 µM): 0.661
relative viability (NCI-H1792; first compound 1.265 µM): 0.588
relative viability (NCI-H1650; first compound 0.04 µM): 1.17
relative viability (NCI-H1650; first compound 0.1265 µM): 1.14
relative viability (NCI-H1650; first compound 0.4 µM): 0.774
relative viability (NCI-H1650; first compound 1.265 µM): 0.914
relative viability (NCI-H520; first compound 0.04 µM): 1.1
relative viability (NCI-H520; first compound 0.1265 µM): 1.08
relative viability (NCI-H520; first compound 0.4 µM): 1.18
relative viability (NCI-H520; first compound 1.265 µM): 0.836
relative viability (NCI-H460; first compound 0.04 µM): 1.08
relative viability (NCI-H460; first compound 0.1265 µM): 1.18
relative viability (NCI-H460; first compound 0.4 µM): 1.14
relative viability (NCI-H460; first compound 1.265 µM): 0.962
relative viability (NCI-H2087; first compound 0.04 µM): 0.856
relative viability (NCI-H2087; first compound 0.1265 µM): 1.03
relative viability (NCI-H2087; first compound 0.4 µM): 1.05
relative viability (NCI-H2087; first compound 1.265 µM): 0.857
relative viability (NCI-H2023; first compound 0.04 µM): 1.03
relative viability (NCI-H2023; first compound 0.1265 µM): 1.11
relative viability (NCI-H2023; first compound 0.4 µM): 0.987
relative viability (NCI-H2023; first compound 1.265 µM): 0.904
relative viability (NCI-H727; first compound 0.04 µM): 0.414
relative viability (NCI-H727; first compound 0.1265 µM): 0.422
relative viability (NCI-H727; first compound 0.4 µM): 0.476
relative viability (NCI-H727; first compound 1.265 µM): 0.515
relative viability (H3255; first compound 0.04 µM): 0.572
relative viability (H3255; first compound 0.1265 µM): 0.642
relative viability (H3255; first compound 0.4 µM): 0.684
relative viability (H3255; first compound 1.265 µM): 0.463
relative viability (LC-2-ad; first compound 0.04 µM): 0.399
relative viability (LC-2-ad; first compound 0.1265 µM): 0.5
relative viability (LC-2-ad; first compound 0.4 µM): 0.415
relative viability (LC-2-ad; first compound 1.265 µM): 0.173
relative viability (NCI-H441; first compound 0.04 µM): 0.751
relative viability (NCI-H441; first compound 0.1265 µM): 0.583
relative viability (NCI-H441; first compound 0.4 µM): 0.365
relative viability (NCI-H441; first compound 1.265 µM): 0.469
relative viability (NCI-H1651; first compound 0.04 µM): 0.926
relative viability (NCI-H1651; first compound 0.1265 µM): 0.995
relative viability (NCI-H1651; first compound 0.4 µM): 0.943
relative viability (NCI-H1651; first compound 1.265 µM): 0.696
relative viability (LCLC-97TM1; first compound 0.04 µM): 0.463
relative viability (LCLC-97TM1; first compound 0.1265 µM): 0.303
relative viability (LCLC-97TM1; first compound 0.4 µM): 0.503
relative viability (LCLC-97TM1; first compound 1.265 µM): 0.396
relative viability (CAL-12T; first compound 0.04 µM): 1.26
relative viability (CAL-12T; first compound 0.1265 µM): 1.21
relative viability (CAL-12T; first compound 0.4 µM): 1.11
relative viability (CAL-12T; first compound 1.265 µM): 1.05
relative viability (PC-3 [JPC-3]; first compound 0.04 µM): 0.817
relative viability (PC-3 [JPC-3]; first compound 0.1265 µM): 0.886
relative viability (PC-3 [JPC-3]; first compound 0.4 µM): 0.7
relative viability (PC-3 [JPC-3]; first compound 1.265 µM): 0.564
relative viability (NCI-H1915; first compound 0.04 µM): 0.769
relative viability (NCI-H1915; first compound 0.1265 µM): 0.77
relative viability (NCI-H1915; first compound 0.4 µM): 0.609
relative viability (NCI-H1915; first compound 1.265 µM): 0.502
relative viability (A-427; first compound 0.04 µM): 1.02
relative viability (A-427; first compound 0.1265 µM): 0.936
relative viability (A-427; first compound 0.4 µM): 0.868
relative viability (A-427; first compound 1.265 µM): 0.708

O=C(O)c1ccc(-c2c[nH]c3ncc(-c4ccccc4)cc23)cc1C1CCCC1 + CC(=O)Nc1cccc(-n2c(=O)n(C3CC3)c(=O)c3c(Nc4ccc(I)cc4F)n(C)c(=O)c(C)c32)c1 [Trametinib] (partner 0.02 µM)
relative viability (NCI-H596; first compound 0.04 µM): 0.726
relative viability (NCI-H596; first compound 0.1265 µM): 0.815
relative viability (NCI-H596; first compound 0.4 µM): 0.777
relative viability (NCI-H596; first compound 1.265 µM): 0.802
relative viability (BEN; first compound 0.04 µM): 1.19
relative viability (BEN; first compound 0.1265 µM): 1.05
relative viability (BEN; first compound 0.4 µM): 1.08
relative viability (BEN; first compound 1.265 µM): 0.957
relative viability (NCI-H1944; first compound 0.04 µM): 0.405
relative viability (NCI-H1944; first compound 0.1265 µM): 0.437
relative viability (NCI-H1944; first compound 0.4 µM): 0.487
relative viability (NCI-H1944; first compound 1.265 µM): 0.37
relative viability (201T; first compound 0.04 µM): 0.703
relative viability (201T; first compound 0.1265 µM): 0.673
relative viability (201T; first compound 0.4 µM): 0.741
relative viability (201T; first compound 1.265 µM): 0.738
relative viability (NCI-H1792; first compound 0.04 µM): 0.375
relative viability (NCI-H1792; first compound 0.1265 µM): 0.454
relative viability (NCI-H1792; first compound 0.4 µM): 0.407
relative viability (NCI-H1792; first compound 1.265 µM): 0.392
relative viability (NCI-H1650; first compound 0.04 µM): 0.54
relative viability (NCI-H1650; first compound 0.1265 µM): 0.684
relative viability (NCI-H1650; first compound 0.4 µM): 0.758
relative viability (NCI-H1650; first compound 1.265 µM): 0.49
relative viability (NCI-H520; first compound 0.04 µM): 0.673
relative viability (NCI-H520; first compound 0.1265 µM): 0.775
relative viability (NCI-H520; first compound 0.4 µM): 0.672
relative viability (NCI-H520; first compound 1.265 µM): 0.437
relative viability (NCI-H460; first compound 0.04 µM): 0.13
relative viability (NCI-H460; first compound 0.1265 µM): 0.189
relative viability (NCI-H460; first compound 0.4 µM): 0.238
relative viability (NCI-H460; first compound 1.265 µM): 0.23
relative viability (NCI-H2087; first compound 0.04 µM): 0.204
relative viability (NCI-H2087; first compound 0.1265 µM): 0.209
relative viability (NCI-H2087; first compound 0.4 µM): 0.179
relative viability (NCI-H2087; first compound 1.265 µM): 0.205
relative viability (NCI-H650; first compound 0.04 µM): 0.935
relative viability (NCI-H650; first compound 0.1265 µM): 0.943
relative viability (NCI-H650; first compound 0.4 µM): 0.879
relative viability (NCI-H650; first compound 1.265 µM): 0.579
relative viability (NCI-H2023; first compound 0.04 µM): 0.525
relative viability (NCI-H2023; first compound 0.1265 µM): 0.55
relative viability (NCI-H2023; first compound 0.4 µM): 0.618
relative viability (NCI-H2023; first compound 1.265 µM): 0.413
relative viability (NCI-H727; first compound 0.04 µM): 0.428
relative viability (NCI-H727; first compound 0.1265 µM): 0.428
relative viability (NCI-H727; first compound 0.4 µM): 0.379
relative viability (NCI-H727; first compound 1.265 µM): 0.428
relative viability (H3255; first compound 0.04 µM): 0.587
relative viability (H3255; first compound 0.1265 µM): 0.689
relative viability (H3255; first compound 0.4 µM): 0.584
relative viability (H3255; first compound 1.265 µM): 0.625
relative viability (LC-2-ad; first compound 0.04 µM): 0.876
relative viability (LC-2-ad; first compound 0.1265 µM): 0.921
relative viability (LC-2-ad; first compound 0.4 µM): 0.897
relative viability (LC-2-ad; first compound 1.265 µM): 0.769
relative viability (NCI-H441; first compound 0.04 µM): 0.48
relative viability (NCI-H441; first compound 0.1265 µM): 0.494
relative viability (NCI-H441; first compound 0.4 µM): 0.393
relative viability (NCI-H441; first compound 1.265 µM): 0.464
relative viability (NCI-H1651; first compound 0.04 µM): 0.822
relative viability (NCI-H1651; first compound 0.1265 µM): 0.853
relative viability (NCI-H1651; first compound 0.4 µM): 0.829
relative viability (NCI-H1651; first compound 1.265 µM): 0.714
relative viability (LCLC-97TM1; first compound 0.04 µM): 0.202
relative viability (LCLC-97TM1; first compound 0.1265 µM): 0.204
relative viability (LCLC-97TM1; first compound 0.4 µM): 0.173
relative viability (LCLC-97TM1; first compound 1.265 µM): 0.207
relative viability (CAL-12T; first compound 0.04 µM): 0.327
relative viability (CAL-12T; first compound 0.1265 µM): 0.372
relative viability (CAL-12T; first compound 0.4 µM): 0.369
relative viability (CAL-12T; first compound 1.265 µM): 0.333
relative viability (PC-3 [JPC-3]; first compound 0.04 µM): 0.656
relative viability (PC-3 [JPC-3]; first compound 0.1265 µM): 0.756
relative viability (PC-3 [JPC-3]; first compound 0.4 µM): 0.752
relative viability (PC-3 [JPC-3]; first compound 1.265 µM): 0.647
relative viability (NCI-H661; first compound 0.04 µM): 0.585
relative viability (NCI-H661; first compound 0.1265 µM): 0.628
relative viability (NCI-H661; first compound 0.4 µM): 0.585
relative viability (NCI-H661; first compound 1.265 µM): 0.59
relative viability (NCI-H1915; first compound 0.04 µM): 0.293
relative viability (NCI-H1915; first compound 0.1265 µM): 0.313
relative viability (NCI-H1915; first compound 0.4 µM): 0.287
relative viability (NCI-H1915; first compound 1.265 µM): 0.289
relative viability (A-427; first compound 0.04 µM): 0.759
relative viability (A-427; first compound 0.1265 µM): 0.78
relative viability (A-427; first compound 0.4 µM): 0.741
relative viability (A-427; first compound 1.265 µM): 0.584

From the supplement of paper PMC10307832
